Results taken from ChEMBL document CHEMBL2331252, “Facile one-pot synthesis of novel dispirooxindole-pyrrolidine derivatives and their antimicrobial and anticancer activity against A549 human lung adenocarcinoma cancer cell line” (Bioorg Med Chem Lett, 2013).
Converted amounts (≈) assume the structure as drawn. The source made the active and inactive calls. The calls are words filed in the database; no cut-off is given here.

Columns and labels:
A549 [1] = assay: Cytotoxicity against human A549 cells assessed as cell death at 50 ug/ml by MTT assay; type: functional
A549 [2] = assay: Cytotoxicity against human A549 cells assessed as cell death at 200 ug/ml by MTT assay; type: functional
A549 [3] = assay: Cytotoxicity against human A549 cells assessed as cell death at 100 ug/ml by MTT assay; type: functional
Candida albicans [4] = assay: Antifungal activity against Candida albicans MTCC 227 after 48 to 72 hrs; type: functional
Staphylococcus aureus [5] = assay: Antibacterial activity against methicillin-resistant Staphylococcus aureus after 24 hrs; type: functional
Staphylococcus aureus [6] = assay: Antibacterial activity against Staphylococcus aureus MTCC 96 after 24 hrs; type: functional
Klebsiella aerogenes [7] = assay: Antibacterial activity against Enterobacter aerogenes MTCC 111 after 24 hrs; type: functional
Micrococcus luteus [8] = assay: Antibacterial activity against Micrococcus luteus MTCC 106 after 24 hrs; type: functional; conditions: MTCC 106, 24 h
Shigella flexneri [9] = assay: Antibacterial activity against Shigella flexneri MTCC 1457 after 24 hrs; type: functional; conditions: MTCC 1457, 24 h
Proteus vulgaris [10] = assay: Antibacterial activity against Proteus vulgaris MTCC 1771 after 24 hrs; type: functional
Klebsiella pneumoniae [11] = assay: Antibacterial activity against Klebsiella pneumoniae MTCC 109 after 24 hrs; type: functional; conditions: MTCC 109, 24 h
Salmonella typhimurium [12] = assay: Antibacterial activity against Salmonella typhimurium MTCC 1251 after 24 hrs; type: functional, Salmonella enterica subsp. enterica serovar Typhimurium
[13] = Antifungal activity against Malassezia pachydermatis at 1 mg/disc after 48 hrs by disc diffusion method; type: functional
Candida albicans [14] = assay: Antifungal activity against Candida albicans MTCC 227 at 1 mg/disc after 48 hrs by disc diffusion method; type: functional
Staphylococcus aureus [15] = assay: Antibacterial activity against methicillin-resistant Staphylococcus aureus at 1 mg/disc after 24 hrs by disc diffusion method; type: functional
Staphylococcus aureus [16] = assay: Antibacterial activity against Staphylococcus aureus MTCC 96 at 1 mg/disc after 24 hrs by disc diffusion method; type: functional
Klebsiella aerogenes [17] = assay: Antibacterial activity against Enterobacter aerogenes MTCC 111 at 1 mg/disc after 24 hrs by disc diffusion method; type: functional
Micrococcus luteus [18] = assay: Antibacterial activity against Micrococcus luteus MTCC 106 at 1 mg/disc after 24 hrs by disc diffusion method; type: functional
Shigella flexneri [19] = assay: Antibacterial activity against Shigella flexneri MTCC 1457 at 1 mg/disc after 24 hrs by disc diffusion method; type: functional
Proteus vulgaris [20] = assay: Antibacterial activity against Proteus vulgaris MTCC 1771 at 1 mg/disc after 24 hrs by disc diffusion method; type: functional
Klebsiella pneumoniae [21] = assay: Antibacterial activity against Klebsiella pneumoniae MTCC 109 at 1 mg/disc after 24 hrs by disc diffusion method; type: functional
Salmonella typhimurium [22] = assay: Antibacterial activity against Salmonella typhimurium MTCC 1251 at 1 mg/disc after 24 hrs by disc diffusion method; type: functional, Salmonella enterica subsp. enterica serovar Typhimurium; conditions: for inhibition: Salmonella enterica subsp. enterica serovar Typhimurium
[23] = Salmonella enterica, MTCC 1251, 24 h
[24] = Salmonella enterica subsp. enterica serovar Typhimurium

| SMILES | Activity (A549 [1]) [%] | Activity (A549 [2]) [%] | Activity (A549 [3]) [%] | MIC (Candida albicans [4]) | MIC (Staphylococcus aureus [5]) | MIC (Staphylococcus aureus [6]; MTCC 96, 24 h) [µg/mL] | MIC (Micrococcus luteus [8]) [µg/mL] | MIC (Shigella flexneri [9]) [µg/mL] | MIC (Proteus vulgaris [10]; MTCC 1771, 24 h) [µg/mL] | MIC (Klebsiella pneumoniae [11]) [µg/mL] | MIC (Salmonella typhimurium [12]; [23]) [µg/mL] | inhibition [13] | inhibition zone (IZ) (Candida albicans [14]) [mm] | inhibition zone (IZ) (Staphylococcus aureus [15]) [mm] | inhibition zone (IZ) (Staphylococcus aureus [16]) [mm] | inhibition zone (IZ) (Micrococcus luteus [18]) [mm] | inhibition zone (IZ) (Shigella flexneri [19]) [mm] | inhibition zone (IZ) (Proteus vulgaris [20]) [mm] | inhibition zone (IZ) (Klebsiella pneumoniae [21]) [mm] | inhibition zone (IZ) (Klebsiella aerogenes [17]) [mm] | also measured |
| --- | --- | --- | --- | --- | --- | --- | --- | --- | --- | --- | --- | --- | --- | --- | --- | --- | --- | --- | --- | --- | --- |
| C=CCN1C(=O)[C@@]2(c3ccccc31)N(C)C[C@](C#N)(C(=O)c1c[nH]c3ccccc13)[C@]21C(=O)Nc2ccccc21 | 5.61 | 16 | 8.81 | 500 µg/mL (≈ 948 µM) | 1000 µg/mL (≈ 1900 µM) | 500 (≈ 948 µM) | 500 (≈ 948 µM) | 1000 (≈ 1900 µM) | 1000 (≈ 1900 µM) | 125 (≈ 237 µM) | 62.5 (≈ 118 µM) | inactive | 9 | 9 | 11 | 10 | 9 | 9 | 12 | – | MIC (Klebsiella aerogenes [7]): inactive; inhibition (Klebsiella aerogenes [17]): inactive; inhibition zone (IZ) (Salmonella typhimurium [22]): 16 mm |
| CN1C(=O)[C@@]2(c3cc(Br)ccc31)N(C)C[C@](C#N)(C(=O)c1c[nH]c3ccccc13)[C@]21C(=O)Nc2ccccc21 | 0.87 | 10.92 | 2.07 | inactive | 500 µg/mL (≈ 861 µM) | 500 (≈ 861 µM) | 125 (≈ 215 µM) | 125 (≈ 215 µM) | 500 (≈ 861 µM) | 500 (≈ 861 µM) | 500 (≈ 861 µM) | inactive | – | 8 | 9 | 11 | 11 | 9 | 8 | 10 | MIC (Klebsiella aerogenes [7]; MTCC 111, 24 h): 125 µg/mL (≈ 215 µM); inhibition (Candida albicans [14]): inactive; inhibition zone (IZ) (Salmonella typhimurium [22]): 9 mm |
| Cc1ccc2c(c1)[C@]1(C(=O)N2)N(C)C[C@](C#N)(C(=O)c2c[nH]c3ccccc23)[C@]12C(=O)Nc1ccccc12 | 31.6 | 62.96 | 56.34 | inactive | 500 µg/mL (≈ 997 µM) | – | 500 (≈ 997 µM) | 125 (≈ 249 µM) | 500 (≈ 997 µM) | 500 (≈ 997 µM) | 500 (≈ 997 µM) | inactive | – | 10 | – | 10 | 11 | 10 | 9 | 9 | MIC (Staphylococcus aureus [6]): inactive; MIC (Klebsiella aerogenes [7]; MTCC 111, 24 h): 500 µg/mL (≈ 997 µM); inhibition (Candida albicans [14]): inactive; inhibition (Staphylococcus aureus [16]): inactive; inhibition zone (IZ) (Salmonella typhimurium [22]): 10 mm |
| CN1C[C@](C#N)(C(=O)c2c[nH]c3ccccc23)[C@]2(C(=O)Nc3ccccc32)C12C(=O)c1cccc3cccc2c13 (stereo partly specified) | 7.55 | 29.72 | 21.61 | 500 µg/mL (≈ 957 µM) | inactive | 125 (≈ 239 µM) | 500 (≈ 957 µM) | 500 (≈ 957 µM) | 500 (≈ 957 µM) | 500 (≈ 957 µM) | – | inactive | 9 | – | 11 | 9 | 9 | 8 | 8 | 10 | MIC (Klebsiella aerogenes [7]; MTCC 111, 24 h): 500 µg/mL (≈ 957 µM); MIC (Salmonella typhimurium [12]; [24]): inactive; inhibition (Staphylococcus aureus [15]): inactive; inhibition (Salmonella typhimurium [22]): inactive |
| CCCCN1C(=O)[C@@]2(c3ccccc31)N(C)C[C@](C#N)(C(=O)c1c[nH]c3ccccc13)[C@]21C(=O)Nc2ccccc21 | 4.27 | 32.25 | 19.6 | 500 µg/mL (≈ 920 µM) | 500 µg/mL (≈ 920 µM) | 500 (≈ 920 µM) | 500 (≈ 920 µM) | 500 (≈ 920 µM) | – | 500 (≈ 920 µM) | 500 (≈ 920 µM) | inactive | 8 | 11 | 9 | 8 | 9 | – | 8 | 10 | MIC (Klebsiella aerogenes [7]; MTCC 111, 24 h): 500 µg/mL (≈ 920 µM); MIC (Proteus vulgaris [10]): inactive; inhibition (Proteus vulgaris [20]): inactive; inhibition zone (IZ) (Salmonella typhimurium [22]): 10 mm |
| CN1C(=O)[C@@]2(c3cc(F)ccc31)N(C)C[C@](C#N)(C(=O)c1c[nH]c3ccccc13)[C@]21C(=O)Nc2ccccc21 | 1.41 | 25.51 | 12.22 | 500 µg/mL (≈ 962 µM) | 500 µg/mL (≈ 962 µM) | 500 (≈ 962 µM) | 500 (≈ 962 µM) | 500 (≈ 962 µM) | 500 (≈ 962 µM) | 500 (≈ 962 µM) | 500 (≈ 962 µM) | inactive | 9 | 9 | 10 | 10 | 9 | 8 | 9 | 11 | MIC (Klebsiella aerogenes [7]; MTCC 111, 24 h): 125 µg/mL (≈ 241 µM); inhibition zone (IZ) (Salmonella typhimurium [22]): 8 mm |
| CN1C[C@](C#N)(C(=O)c2c[nH]c3ccccc23)[C@]2(C(=O)Nc3ccccc32)[C@@]12C(=O)Nc1ccc(F)cc12 | 3.6 | 16.79 | 10.82 | 125 µg/mL (≈ 247 µM) | 500 µg/mL (≈ 989 µM) | 125 (≈ 247 µM) | 500 (≈ 989 µM) | 500 (≈ 989 µM) | – | 500 (≈ 989 µM) | – | inactive | 11 | 10 | 12 | 9 | 9 | – | 8 | 9 | MIC (Klebsiella aerogenes [7]; MTCC 111, 24 h): 500 µg/mL (≈ 989 µM); MIC (Proteus vulgaris [10]): inactive; MIC (Salmonella typhimurium [12]; [24]): inactive; inhibition (Proteus vulgaris [20]): inactive; inhibition (Salmonella typhimurium [22]): inactive |
| CN1C(=O)[C@@]2(c3ccccc31)N(C)C[C@](C#N)(C(=O)c1c[nH]c3ccccc13)[C@]21C(=O)Nc2ccccc21 | 1.71 | 13.99 | 7.22 | 250 µg/mL (≈ 498 µM) | 500 µg/mL (≈ 997 µM) | 250 (≈ 498 µM) | 250 (≈ 498 µM) | 250 (≈ 498 µM) | 125 (≈ 249 µM) | 125 (≈ 249 µM) | 500 (≈ 997 µM) | inactive | 12 | 11 | 13 | 11 | 12 | 14 | 13 | 8 | MIC (Klebsiella aerogenes [7]): inactive; inhibition zone (IZ) (Salmonella typhimurium [22]): 10 mm |
